The text below walks through data of publication PMC9709778 (RSC Chemical Biology, 2022).

This test has as its target amyloid β (Aβ42) (Homo sapiens, UniProt P05067). Nature of the test: 1H-15N SOFAST-HMQC NMR chemical shift perturbation. The test is classed as biochemical.

Sequence of amyloid β (Aβ42) (P05067 672-713): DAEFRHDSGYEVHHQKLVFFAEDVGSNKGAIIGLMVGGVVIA

For `COc1cc(OC)c(C(=O)/C=C/c2ccccc2)c(O)c1O` [DDC, 2′,3′-dihydroxy-4′,6′-dimethoxychalcone], the IC50 amounted to 10.6 ± 1.3 µM.
